Measured values reported in the supplement of paper PMC10307832.

Tests used:
Test in all cases: relative viability (nuclei count vs DMSO), 5 days (fraction); higher = more cells survive
[1] = compound: CC(C)=CC[C@@H](O)C1=CC(=O)c2c(O)ccc(O)c2C1=O [Shikonin] + Cc1nc(NC(=O)N2CCC[C@H]2C(N)=O)sc1-c1ccnc(C(C)(C)C(F)(F)F)c1 [Alpelisib] (partner 2 µM)
How it was run: (§1)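 Lung cancer cell lines were seeded in 1536-well plates and dosed by pin tool the next day, with either a single drug or a fixed anchor-drug dose combined with five library-drug doses (not always all listed) spaced in √10 steps. Five days later, one step fixed the cells and stained their nuclei (final 0.05% Triton X-100, 1% formaldehyde, 1 ug/ml Hoechst), and nuclei were counted on 4× images. Relative viability is the nuclei count in treated wells divided by the count in vehicle wells, and each value is the median of duplicate plates.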

[2] = compound: CC(C)N(CCCNC(=O)Nc1ccc(C(C)(C)C)cc1)C[C@H]1O[C@@H](n2ccc3c(N)ncnc32)[C@H](O)[C@@H]1O + CC(C)C[C@H](NC(=O)[C@H](Cc1ccccc1)NC(=O)c1cnccn1)B(O)O [Bortezomib] (partner 0.002 µM)
How it was run: as §1

[3] = compound: CC(C)=CC[C@@H](O)C1=CC(=O)c2c(O)ccc(O)c2C1=O [Shikonin]
How it was run: (§2)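 Vehicle-anchored 1536-well plates of lung cancer cell lines, held overnight at 37 °C, were pinned with five library-drug doses (not always all listed) spaced by √10. No medium change followed over the next 5 days, after which the cells were fixed, permeabilised and Hoechst-stained together and imaged at 4×. Nuclei were counted with MetaXpress, and viability is treated-well nuclei over vehicle-well nuclei, taken as a median across plates. Plates passed with control CV below 25% and at least one doubling.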

[4] = compound: CC(C)N(CCCNC(=O)Nc1ccc(C(C)(C)C)cc1)C[C@H]1O[C@@H](n2ccc3c(N)ncnc32)[C@H](O)[C@@H]1O
How it was run: as §2

Row | Cell Line | relative viability ([1]; first compound 0.01 µM) | relative viability ([1]; first compound 0.1 µM) | relative viability ([1]; first compound 0.3162 µM) | relative viability ([1]; first compound 1 µM) | relative viability ([2]; first compound 0.08 µM) | relative viability ([2]; first compound 0.253 µM) | relative viability ([2]; first compound 0.8 µM) | relative viability ([2]; first compound 2.53 µM) | relative viability ([2]; first compound 8 µM) | relative viability ([3]; 0.01 µM) | relative viability ([3]; 0.1 µM) | relative viability ([3]; 0.3162 µM) | relative viability ([3]; 1 µM) | relative viability ([4]; 0.08 µM) | relative viability ([4]; 0.253 µM) | relative viability ([4]; 0.8 µM) | relative viability ([4]; 2.53 µM) | relative viability ([4]; 8 µM)
1 | NCI-H1975 | 0.676 | 0.712 | 0.702 | 0.538 | 0.34 | 0.352 | 0.149 | 0.36 | 0.341 | 0.956 | 0.946 | 0.955 | 1.05 | 0.844 | 0.837 | 0.594 | 0.843 | 0.743
2 | CAL-12T | 1.14 | 1.13 | 1.19 | 1.2 | 1.04 | 0.739 | 0.907 | 0.847 | 0.784 | 1.03 | 1.07 | 0.981 | 0.991 | 0.937 | 0.906 | 0.992 | 0.969 | 0.938
3 | NCI-H1623 |  |  |  |  |  |  |  |  |  | 0.934 | 0.817 | 1.08 | 1.07 | 0.947 | 0.968 | 0.934 | 0.911 | 1.01
4 | HCC-44 | 0.972 | 0.849 | 0.933 | 0.852 | 0.902 | 1.01 | 0.774 | 0.991 | 0.842 | 1 | 1.05 | 1.03 | 1.09 | 0.989 | 1.04 | 0.789 | 0.976 | 0.93
5 | EKVX | 0.863 | 0.973 | 1.07 | 0.846 | 1.06 | 1.24 | 1.08 | 0.993 | 0.786 | 1 | 0.963 | 1.08 | 0.964 | 1 | 0.934 | 0.932 | 1 | 0.862
6 | NCI-H1651 | 0.921 | 0.98 | 1 | 1.07 | 0.958 | 0.957 | 0.967 | 0.943 | 0.944 | 1.09 | 0.919 | 1.01 | 1.02 | 0.963 | 0.918 | 0.92 | 1 | 0.957
7 | NCI-H1944 | 0.747 | 0.936 | 0.992 | 0.909 |  |  |  |  |  | 0.993 | 1.06 | 1.12 | 0.986 | 0.979 | 0.878 | 0.762 | 0.976 | 0.936
8 | NCI-H1703 | 0.317 | 0.277 | 0.287 | 0.244 | 0.244 | 0.316 | 0.273 | 0.381 | 0.307 | 0.994 | 1.21 | 0.864 | 0.646 | 0.913 | 1.04 | 0.803 | 1.03 | 0.782
9 | NCI-H358 | 0.825 | 0.807 | 0.924 | 0.707 |  |  |  |  |  | 0.978 | 0.862 | 0.967 | 0.979 | 0.856 | 0.873 | 1.04 | 0.924 | 0.889
10 | NCI-H1793 | 0.863 | 0.779 | 0.754 | 0.722 |  |  |  |  |  | 0.926 | 1.1 | 0.85 | 0.936 | 0.865 |  | 0.861 | 0.891 | 0.854
11 | ChaGo-K-1 |  |  |  |  | 1.08 | 0.886 | 0.87 | 1.01 | 1.08 | 1.02 | 0.971 | 1.05 | 1.02 | 0.97 | 0.889 | 0.918 | 0.96 | 1.06
12 | NCI-H2342 |  |  |  |  |  |  |  |  |  | 0.941 | 0.943 | 1.11 | 0.991 | 1.01 | 1.08 | 0.815 | 1.01 | 1.05
13 | NCI-H1650 |  |  |  |  | 0.185 | 0.205 |  | 0.205 | 0.201 | 0.914 | 0.992 | 0.782 | 0.962 | 0.865 | 0.909 |  | 0.952 | 0.934
14 | SW 900 |  |  |  |  |  |  |  |  |  | 0.746 | 0.918 | 0.709 | 0.851 | 0.787 | 0.705 |  | 0.886 | 0.812
15 | SK-MES-1 | 0.873 | 1.04 | 0.909 | 0.594 |  |  |  |  |  | 1.04 | 1.08 | 1.1 | 0.962 | 0.996 | 0.942 | 0.99 | 1.02 | 0.939
16 | NCI-H1648 |  |  |  |  |  |  |  |  |  | 0.911 | 0.686 | 1.07 | 1.08 | 0.756 | 0.935 | 0.68 | 0.784 | 0.823
17 | NCI-H522 |  |  |  |  |  |  |  |  |  | 0.962 | 1.09 | 0.955 | 0.956 | 0.868 | 0.898 | 0.885 | 0.99 | 0.997
18 | LK-2 | 1.04 | 1.54 | 1.11 | 1.04 |  |  |  |  |  | 1.1 | 0.955 | 0.998 | 1.03 | 0.886 | 0.792 | 1.04 | 0.966 | 0.974
19 | NCI-H1395 | 1.14 | 1.16 | 0.973 | 1 |  |  |  |  |  | 0.899 | 0.987 | 0.846 | 0.987 | 0.838 | 0.782 | 0.646 | 0.933 | 0.799
20 | A549 | 0.789 | 0.81 | 0.708 | 0.753 |  |  |  |  |  | 1.02 | 0.956 | 1.07 | 0.997 | 0.93 | 0.877 | 1.02 | 0.94 | 0.933
21 | NCI-H2170 | 0.824 | 0.672 | 0.92 | 0.793 |  |  |  |  |  | 1.01 | 0.866 | 1.12 | 0.99 | 0.972 | 0.937 | 0.924 | 1.02 | 0.975
